Data from patent US9789095B2, “Inhibitors of calcium-activated chloride channels” (The Regents of the University of California, priority 2007, dated 2017).

Experiments:
CaCC in T84 cells = assay: Short-circuit current (chloride secretion) in T84 cell monolayers; type: cell-based, human
Protocol: ATP/carbachol were used to induce calcium-dependent chloride secretion in well-differentiated T84 cell monolayers. T84 cells were seeded at a density of 10^5 cm^−2 on permeable supports (Snapwell, 1.12 cm^2 surface area) and grown until confluent. Supports containing confluent cell monolayers were mounted in Snapwell diffusion chambers. Cells were bathed for a 30 min stabilization period in HCO3^−-buffered solution containing (mmol/L): 120 NaCl, 5 KCl, 1 MgCl2, 1 CaCl2, 10 D-glucose, 5 HEPES, and 25 NaHCO3 (pH 7.4), aerated with 95% O2/5% CO2 at 37° C. Monolayers were voltage-clamped at 0 mV (EVC4000 Multi-Channel V/I Clamp, World Precision Instruments), and short-circuit current (Isc) was recorded continuously with agonists/inhibitors added at specified times.

CaMKII phosphorylation = CaMKII phosphorylation immunoblot in HT-29 cells; type: cell-based; conditions: 30 μM pretreatment, ATP/carbachol
Description: CaMKII Regulation of CaCC activation by CaMKII occurs in a cell type-dependent manner (Hartzell et al., Annu. Rev. Physiol. 67:719-58 (2005)). CaMKII has been reported to regulate calcium-activated chloride current in HT-29 and T84 cells (Worrell et al., Am. J. Physiol. 260:C877-82 (1991); Morris et al., Am. J. Physiol. 264:C977-85 (1993); Chan et al., J. Biol. Chem. 269:32464-8 (1994); Braun et al., J. Physiol. 488:37-55 (1995)). To determine whether the CaCC inhibitors interfered with ATP/carbachol-induced CaMKII activation, CaMKII phosphorylation in HT-29 cells was measured by immunoblot analysis. Calcium/calmodulin-dependent protein kinase II (CaMKII) was activated by 2 min treatment of HT-29 cells with ATP/carbachol (each 100 μM). Cells were then lysed with cell lysis buffer (20 mM Tris-HCl (pH 7.4), 1% Triton X-100, 150 mM NaCl, 2 mM EDTA, 50 mM α-glycerolphosphate, 1 mM Na3VO4, 1 mM DTT, and complete protease inhibitor mixture (Roche Applied Science)). Cell debris was removed by centrifugation, and proteins in the supernatant were resolved by SDS-PAGE and immunoblotted using standard procedures (transfer to PDVF membrane, 1 h blocking in 5% nonfat dry milk, primary/secondary antibody incubations, enhanced chemiluminescence detection). Rabbit polyclonal antibodies for anti-phospho-CaMKII (Thr286) and β-actin were purchased from Cell Signaling Technology (Danvers, Mass.).

[1] = system: calcium-activated chloride channel (CaCC); assay: Whole-cell patch-clamp of calcium-dependent chloride current in HT-29 cells; type: cell-based, human; conditions: for calcium-dependent chloride current reduced: 1 μM ionomycin, HT-29; for ionomycin-induced chloride currents, symmetric NMDG-Cl solutions: whole-cell, pretreatment
Protocol: Whole cell recordings were accomplished with HT-29 cells at room temperature. The pipette solution contained (in mM): 30 CsCl, 100 Cs-aspartate, 1 MgCl2, 0.5 EGTA, 2 Tris-ATP, and 10 HEPES (pH 7.2 with CsOH), and the bath solution contained (in mM) 140 N-methyl-D-glucamine chloride (NMDG-Cl), 1 CaCl2, 1 MgCl2, 10 glucose, and 10 HEPES (pH 7.2). In one set of studies, symmetric NMDG-Cl solutions contained 140 mM NMDG-Cl, 1 mM MgCl2, 0.5 mM EGTA, 2 mM Tris-ATP, and 10 mM HEPES, pH 7.2. Pipettes were pulled from borosilicate glass and had resistances of 3-5 MΩ after fire polishing. Seal resistances were typically between 3-10 GΩ. After establishing the whole cell configuration, CaCCs were activated by 1 μM ionomycin. Whole cell currents were elicited by applying hyperpolarizing and depolarizing voltage pulses from a holding potential of 0 mV to potentials between −120 mV and +120 mV in steps of 20 mV. Currents were filtered at 5 kHz, and digitized and analyzed using an AxoScope 10.0 system and a Digidata 1440A […] (Molecular Devices, Sunnyvale, Calif.). Mean currents were expressed as current densities (picoampere per picofarad (pA/pF)).

[2] = Aqueous solubility in PBS by optical absorbance of a saturated solution; type: physicochemical; conditions: aqueous buffer, thermodynamic from solid
Description: The high aqueous solubility is a consequence of their polarity and negative charge at physiological pH.

[3] = system: calcium-activated chloride channel (CaCC); assay: YFP fluorescence plate reader iodide influx assay in HT-29 cells (ATP/carbachol); type: cell-based, human; conditions: semi-quantitative
Protocol: Screening was performed using a customized screening system (BECKMAN COULTER, Inc., Indianapolis, Ind.) consisting of the SAGIAN Core system integrated with SAMI software, and equipped with an ORCA arm for labware transport, a 96-channel head BIOMEK FX, CO2 incubator, plate washer, bar code reader, delidding station, and two FLUOstar OPTIMA fluorescence plate readers (BMG Labtechnologies, Durham, N.C.), each equipped with syringe pumps and custom excitation/emission filters (500/544 nm; CHROMA, Brattleboro, Vt.).
HT-29 cells expressing YFP-H148Q/I152L were plated in 96-well plates at 70% confluence. Plates were incubated overnight at 37° C., 5% CO2 and then the growth medium was replaced with fresh growth medium. […] YFP fluorescence was measured 1 s before and for 30 s after addition of a PBS-iodide solution (PBS that has 100 mM chloride replaced by iodide) containing carbachol and ATP (100 μM each). Each 96-well plate contained ‘positive’ controls (DMSO vehicle without agonists or test compounds) and ‘negative’ controls (DMSO vehicle with agonists but without test compounds). In some experiments solutions included (individually or in combination): carbachol, ATP, or histamine (at 50, 100, 150 or 200 μM), calcimycin (10 μM), thapsigargin (2 μM) and CFTRinh-172 (20 μM).
Iodide influx (d[I^−]/dt at t=0) was computed from fluorescence time course data by single exponential regression, as described (Ma et al., J. Clin. Invest. 110:1651-8 (2002)). Percentage inhibition was computed as: percentage inhibition=100×(Slopenegative control−Slopetest compound)/(Slopenegative control−Slopepositive control).

[4] = system: agonist-induced [Ca2+]i elevation; assay: Cytoplasmic calcium measurement by Fura-2 fluorescence in HT-29 cells; type: cell-based, human; conditions: pretreatment at high concentration prior to agonist
Protocol: [Ca^2+]i was measured in confluent monolayers of HT-29 cells after loading with Fura-2 (2 μM Fura-2-AM, 30 min, 37° C.). Labeled cells were mounted in a perfusion chamber on the stage of an inverted epifluorescence microscope. Cells were superfused with (in mM): 140 NaCl, 5 KCl, 1 MgCl2, 1 CaCl2, 10 D-glucose, and 10 HEPES (pH 7.4), initially without and then with ATP/carbachol. Test compounds were present in some experiments for 10 min prior to agonist addition. Fura-2 fluorescence was recorded at excitation wavelengths of 340 nm and 380 nm using standard procedures

human wildtype CFTR = target: T1, human wildtype CFTR (Homo sapiens, UniProt P13569); assay: Iodide influx in FRT cells expressing human wildtype CFTR; type: cell-based; conditions: 20 μM
T1 construct: expressed in transfected cells; host or cells: Fisher rat thyroid (FRT) cells
T1 sequence (P13569 whole entry): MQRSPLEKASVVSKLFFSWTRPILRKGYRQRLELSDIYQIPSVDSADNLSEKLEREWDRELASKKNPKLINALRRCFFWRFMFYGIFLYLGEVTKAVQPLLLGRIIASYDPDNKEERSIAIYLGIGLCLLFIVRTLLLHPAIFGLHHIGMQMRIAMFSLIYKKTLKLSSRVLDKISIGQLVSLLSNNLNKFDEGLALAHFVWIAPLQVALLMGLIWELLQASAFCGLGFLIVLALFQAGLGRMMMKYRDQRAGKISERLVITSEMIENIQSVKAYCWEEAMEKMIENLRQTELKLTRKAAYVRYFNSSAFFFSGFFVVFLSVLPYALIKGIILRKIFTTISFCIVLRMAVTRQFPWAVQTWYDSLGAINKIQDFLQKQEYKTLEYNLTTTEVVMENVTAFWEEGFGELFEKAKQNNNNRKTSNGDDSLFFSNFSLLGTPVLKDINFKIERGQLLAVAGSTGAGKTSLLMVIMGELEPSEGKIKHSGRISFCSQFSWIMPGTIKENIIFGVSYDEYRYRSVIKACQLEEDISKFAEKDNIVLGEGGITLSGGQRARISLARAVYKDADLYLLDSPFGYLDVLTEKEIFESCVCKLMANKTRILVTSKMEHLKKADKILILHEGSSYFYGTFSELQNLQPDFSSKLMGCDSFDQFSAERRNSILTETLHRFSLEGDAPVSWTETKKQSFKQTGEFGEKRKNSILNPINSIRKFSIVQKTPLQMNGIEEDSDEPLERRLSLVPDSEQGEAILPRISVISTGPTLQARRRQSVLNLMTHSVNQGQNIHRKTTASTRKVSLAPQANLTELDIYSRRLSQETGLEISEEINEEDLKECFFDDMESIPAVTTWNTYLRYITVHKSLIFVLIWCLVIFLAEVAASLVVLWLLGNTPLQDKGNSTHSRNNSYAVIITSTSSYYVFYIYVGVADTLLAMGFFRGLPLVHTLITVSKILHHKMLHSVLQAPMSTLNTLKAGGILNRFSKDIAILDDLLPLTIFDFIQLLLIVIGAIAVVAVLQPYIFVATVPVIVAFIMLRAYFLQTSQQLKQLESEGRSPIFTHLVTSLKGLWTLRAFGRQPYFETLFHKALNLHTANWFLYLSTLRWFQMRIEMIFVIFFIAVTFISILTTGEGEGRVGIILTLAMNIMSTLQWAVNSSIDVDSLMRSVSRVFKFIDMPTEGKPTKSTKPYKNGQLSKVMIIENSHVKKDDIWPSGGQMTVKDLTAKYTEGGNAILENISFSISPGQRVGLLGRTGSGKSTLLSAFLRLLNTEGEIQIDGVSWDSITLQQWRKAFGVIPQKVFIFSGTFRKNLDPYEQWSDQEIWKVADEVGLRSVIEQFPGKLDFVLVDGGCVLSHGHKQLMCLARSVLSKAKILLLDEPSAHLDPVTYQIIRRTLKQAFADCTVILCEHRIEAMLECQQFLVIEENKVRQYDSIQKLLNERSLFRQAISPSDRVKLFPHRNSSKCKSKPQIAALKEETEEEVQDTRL
Protocol: Cystic Fibrosis Transmembrane Conductance Regulator (CFTR) Experiments were performed to determine whether the compounds affected CFTR because CFTR is a major intestinal chloride channel and evidence exists for cross-talk between cAMP and calcium signaling in intestinal cell chloride secretion (Schultheiss et al., Eur. J. Pharmacol. 546:161-70 (2006); Takahashi et al., J. Med. Microbiol. 49:801-10 (2000); Chao et al., EMBO J. 13:1065-72 (1994)). As described (Ma et al., J. Clin. Invest. 110:1651-8 (2002)), FRT cells expressing human wildtype CFTR and YFP-H148Q/I152L, at 100% confluence, were washed 3 times with PBS, leaving 60 μL. CFTR was activated by a cocktail containing forskolin (20 μM), genistein (50 μM), and isobutylmethylxanthine (100 μM). Iodide influx as described in Example 1 was measured at 10 min after addition of test compounds by determining YFP fluorescence for 2 s before and 20 s after addition of 165 μl of PBS-iodide.

| solubility [2] [µM] | CFTR inhibition (iodide influx), positive control (human wildtype CFTR) | Molecule | ATP-induced short-circuit current reduced (CaCC in T84 cells; 10 μM compound) [%] | ATP-induced short-circuit current reduced (CaCC in T84 cells; 30 μM compound) [%] | agonist-induced CaMKII phosphorylation (CaMKII phosphorylation) | calcium-dependent chloride current reduced ([1]; 0.1 μM compound) [%] | calcium-dependent chloride current reduced ([1]; 1 μM compound) [%] | calcium-dependent chloride current reduced ([1]; 10 μM compound) [%] | ionomycin-induced chloride currents, symmetric NMDG-Cl solutions [1] | % inhibition at 25 μM ([3]; class A aminothiophenes) [%] | ATP or carbachol-induced [Ca2+]i elevations [4] | % inhibition at 25 μM ([3]; class B aminothiazoles) [%] |
| --- | --- | --- | --- | --- | --- | --- | --- | --- | --- | --- | --- | --- |
| > 500 | – | CC(C)(C)C1CCc2c(sc(NC(=O)c3ccco3)c2C(=O)O)C1 (centres unmarked) [CaCCinh-A01, 6-tert-butyl-2-(furan-2-carboxamido)-4,5,6,7-tetrahydrobenzo[b]thiophene-3-carboxylic acid] | 38±7 | 78±3 | did not significantly affect | 38±14 | 66±10 | 91±1 | reduced ionomycin-induced currents | 100 | did not significantly reduce | – |
| – | – | 2-hydroxy-5-(4-p-tolylthiazol-2-ylamino)benzoic acid [CaCCinh-B01] | 29±11 | 64±3 | did not significantly affect | 11±7 | 34±12 | 77±4 | reduced ionomycin-induced currents | – | did not significantly reduce | 100 |
| – | inhibition | O=C(O)c1ccc(C=C2SC(=S)N(c3cccc(C(F)(F)F)c3)C2=O)cc1 [CFTRinh-172, 3-[(3-trifluoromethyl)phenyl]-5-[(4-carboxyphenyl)methylene]-2-thioxo-4-thiazolidinone, reference compound] | – | – | – | – | – | – | – | – | – | – |
